Measurements published in article PMC5218480 (PLoS ONE, 2017).

Tested on: MV-4-11 cells
Assay: Gene expression microarray analysis (Affymetrix PrimeView) and GSEA
Type: cell-based, human
Set-up: RFU PODN (11730768_x_at) / Fold change /veh PODN (11730768_x_at) / RFU LINC00158 (11744669_a_at) / Fold change /veh LINC00158 (11744669_a_at) / RFU DUSP10 (11751237_a_at) / Fold change /veh DUSP10 (11751237_a_at) / RFU ID3 (11757404_x_at) / Fold change /veh ID3 (11757404_x_at) / RFU PLEKHG5 (11737974_s_at) / Fold change /veh PLEKHG5 (11737974_s_at) / RFU LRRC4B (11730491_at) / Fold change /veh LRRC4B (11730491_at) / RFU GIMAP4 (11747438_a_at) / Fold change /veh GIMAP4 (11747438_a_at) / RFU KRT8 (11758183_x_at) / Fold change /veh KRT8 (11758183_x_at) / RFU CNN1 (11734310_a_at) / Fold change /veh CNN1 (11734310_a_at) / RFU VPS37D (11726825_at) / Fold change /veh VPS37D (11726825_at) / RFU C10orf10 (11716522_x_at) / Fold change /veh C10orf10 (11716522_x_at) / RFU KIR2DL2 /// KIR2DL4 /// KIR2DL5A /// KIR2DL5B /// KIR2DS1 /// KIR2DS2 /// KIR2DS3 /// KIR2DS4 /// KIR3DL3 /// KIR3DL3 /// KIR3DS1 (11738374_at) / Fold change /veh KIR2DL2 /// KIR2DL4 /// KIR2DL5A /// KIR2DL5B /// KIR2DS1 /// KIR2DS2 /// KIR2DS3 /// KIR2DS4 /// KIR3DL3 /// KIR3DL3 /// KIR3DS1 (11738374_at) / RFU C1QL1 (11718748_at) / Fold change /veh C1QL1 (11718748_at) / RFU TMPRSS4 (11747572_a_at) / Fold change /veh TMPRSS4 (11747572_a_at) / RFU HAMP (11756126_x_at) / Fold change /veh HAMP (11756126_x_at) / RFU RNFT2 (11725882_a_at) / Fold change /veh RNFT2 (11725882_a_at) / RFU NR4A2 (11747474_a_at) / Fold change /veh NR4A2 (11747474_a_at) / RFU ABCC12 (11746883_a_at) / Fold change /veh ABCC12 (11746883_a_at) / RFU TMEM136 (11760407_x_at) / Fold change /veh TMEM136 (11760407_x_at) / RFU CLDN22 /// WWC2 (11732394_at) / Fold change /veh CLDN22 /// WWC2 (11732394_at) / RFU HLA-DPB1 (11760878_x_at) / Fold change /veh HLA-DPB1 (11760878_x_at) / RFU SPINT1 (11716480_a_at) / Fold change /veh SPINT1 (11716480_a_at) / RFU GAP43 (11754022_s_at) / Fold change /veh GAP43 (11754022_s_at) / RFU A4GNT (11735810_at) / Fold change /veh A4GNT (11735810_at) / RFU PRB3 (11715151_x_at) / Fold change /veh PRB3 (11715151_x_at) / RFU TUBB4B (11761932_at) / Fold change /veh TUBB4B (11761932_at) / RFU CAPN14 (11732068_a_at) / Fold change /veh CAPN14 (11732068_a_at) / RFU TMCC2 (11721928_a_at) / Fold change /veh TMCC2 (11721928_a_at) / RFU IRGQ (11745062_a_at) / Fold change /veh IRGQ (11745062_a_at) / RFU FAM174B (11720279_a_at) / Fold change /veh FAM174B (11720279_a_at) / RFU TMPRSS4 (11748680_a_at) / Fold change /veh TMPRSS4 (11748680_a_at) / RFU FAM212B (11763350_a_at) / Fold change /veh FAM212B (11763350_a_at) / RFU PLEKHG5 (11743358_a_at) / Fold change /veh PLEKHG5 (11743358_a_at) / RFU ZSCAN30 (11745921_a_at) / Fold change /veh ZSCAN30 (11745921_a_at) / RFU CMKLR1 (11741424_a_at) / Fold change /veh CMKLR1 (11741424_a_at) / RFU LOC101060620 /// MAPK8IP1 (11723275_at) / Fold change /veh LOC101060620 /// MAPK8IP1 (11723275_at) / RFU SPTSSB (11747773_x_at) / Fold change /veh SPTSSB (11747773_x_at) / RFU PRSS12 (11739890_at) / Fold change /veh PRSS12 (11739890_at) / RFU BIN1 (11741810_x_at) / Fold change /veh BIN1 (11741810_x_at) / RFU WNT11 (11732464_a_at) / Fold change /veh WNT11 (11732464_a_at) / RFU C10orf10 (11716521_a_at) / Fold change /veh C10orf10 (11716521_a_at) / RFU C5orf56 (11738089_at) / Fold change /veh C5orf56 (11738089_at) / RFU CYB561 (11721691_x_at) / Fold change /veh CYB561 (11721691_x_at) / RFU ANKRD19P (11752326_a_at) / Fold change /veh ANKRD19P (11752326_a_at) / RFU OR2T12 /// OR2T33 /// OR2T8 (11738714_s_at) / Fold change /veh OR2T12 /// OR2T33 /// OR2T8 (11738714_s_at) / RFU VCAN (11748164_a_at) / Fold change /veh VCAN (11748164_a_at) / RFU JSRP1 (11732532_at) / Fold change /veh JSRP1 (11732532_at) / RFU KRTAP10-11 (11738290_x_at) / Fold change /veh KRTAP10-11 (11738290_x_at) / RFU MYO3A (11730013_a_at) / Fold change /veh MYO3A (11730013_a_at) / RFU EBF3 (11725865_a_at) / Fold change /veh EBF3 (11725865_a_at) / RFU CAMK2N1 (11719241_x_at) / Fold change /veh CAMK2N1 (11719241_x_at) / RFU C5orf56 (11738088_a_at) / Fold change /veh C5orf56 (11738088_a_at) / RFU OLFML3 (11715873_a_at) / Fold change /veh OLFML3 (11715873_a_at) / RFU LOC100653217 /// NTM (11731650_a_at) / Fold change /veh LOC100653217 /// NTM (11731650_a_at) / RFU MAPK11 (11762145_a_at) / Fold change /veh MAPK11 (11762145_a_at) / RFU FIZ1 (11724087_x_at) / Fold change /veh FIZ1 (11724087_x_at) / RFU OASL (11726364_x_at) / Fold change /veh OASL (11726364_x_at) / RFU SOX15 (11748057_x_at) / Fold change /veh SOX15 (11748057_x_at) / RFU CD79A (11719716_a_at) / Fold change /veh CD79A (11719716_a_at) / RFU HIST1H1D (11736915_at) / Fold change /veh HIST1H1D (11736915_at) / RFU CASKIN2 (11723855_a_at) / Fold change /veh CASKIN2 (11723855_a_at) / RFU LOC730098 (11760151_x_at) / Fold change /veh LOC730098 (11760151_x_at) / RFU OR4N2 (11742367_at) / Fold change /veh OR4N2 (11742367_at) / RFU PRRT2 (11749266_a_at) / Fold change /veh PRRT2 (11749266_a_at) / RFU SNX32 (11753110_a_at) / Fold change /veh SNX32 (11753110_a_at) / RFU CDHR5 (11726645_a_at) / Fold change /veh CDHR5 (11726645_a_at) / RFU RCAN1 (11760418_a_at) / Fold change /veh RCAN1 (11760418_a_at) / RFU FAM167A (11723789_a_at) / Fold change /veh FAM167A (11723789_a_at) / RFU FAM26E (11764081_at) / Fold change /veh FAM26E (11764081_at) / RFU ISYNA1 (11749810_s_at) / Fold change /veh ISYNA1 (11749810_s_at) / RFU ACY1 (11761880_at) / Fold change /veh ACY1 (11761880_at) / RFU 11764098_at / Fold change /veh 11764098_at / RFU SAMD14 (11745864_x_at) / Fold change /veh SAMD14 (11745864_x_at) / RFU NPB (11741838_a_at) / Fold change /veh NPB (11741838_a_at) / RFU TMPRSS6 (11731388_a_at) / Fold change /veh TMPRSS6 (11731388_a_at) / RFU KRTAP10-2 (11738614_at) / Fold change /veh KRTAP10-2 (11738614_at) / RFU ARHGAP8 /// PRR5-ARHGAP8 (11727945_x_at) / Fold change /veh ARHGAP8 /// PRR5-ARHGAP8 (11727945_x_at) / RFU KRTAP5-7 /// NADSYN1 (11734609_at) / Fold change /veh KRTAP5-7 /// NADSYN1 (11734609_at) / RFU RASL12 (11751679_a_at) / Fold change /veh RASL12 (11751679_a_at) / RFU CDKN2B (11736163_a_at) / Fold change /veh CDKN2B (11736163_a_at) / RFU PRF1 (11729649_at) / Fold change /veh PRF1 (11729649_at) / RFU, ZNF638 /// ZNF638-IT1 / Fold change vs veh, ZNF638 /// ZNF638-IT1 / RFU, PANK3 / Fold change vs veh, PANK3 / RFU, SH3YL1 / Fold change vs veh, SH3YL1 / RFU, ZEB2 / Fold change vs veh, ZEB2 / RFU, NRIP1 / Fold change vs veh, NRIP1 / RFU, PTTG1IP / Fold change vs veh, PTTG1IP / RFU, CAPN2 / Fold change vs veh, CAPN2 / RFU, MED14 / Fold change vs veh, MED14 / RFU, SNORA58 / Fold change vs veh, SNORA58 / RFU, C1orf63 / Fold change vs veh, C1orf63 / RFU, LRRFIP1 / Fold change vs veh, LRRFIP1 / RFU, NDUFAF7 / Fold change vs veh, NDUFAF7 / RFU, SLC12A2 / Fold change vs veh, SLC12A2 / RFU, IBTK / Fold change vs veh, IBTK / RFU, ESF1 / Fold change vs veh, ESF1 / Fold change vs veh, TMEM50B / RFU, TAOK1 / Fold change vs veh, TAOK1 / RFU, ACBD3 / Fold change vs veh, ACBD3 / RFU, TMA16 / Fold change vs veh, TMA16 / RFU, RWDD3 / Fold change vs veh, RWDD3 / RFU, BCAT1 / Fold change vs veh, BCAT1 / RFU, EDEM3 / Fold change vs veh, EDEM3 / RFU, TMEM33 / Fold change vs veh, TMEM33 / RFU, WDR75 / Fold change vs veh, WDR75 / RFU, AHCTF1 / Fold change vs veh, AHCTF1 / RFU, TFRC / Fold change vs veh, TFRC / RFU, ZDHHC17 / Fold change vs veh, ZDHHC17 / RFU, NOM1 / Fold change vs veh, NOM1 / RFU, ARL8B / Fold change vs veh, ARL8B / RFU, ZBTB11 / Fold change vs veh, ZBTB11 / RFU, TAMM41 / Fold change vs veh, TAMM41 / RFU, KIAA1704 /// LOC100996395 / Fold change vs veh, KIAA1704 /// LOC100996395 / RFU, ING1 / Fold change vs veh, ING1 / RFU, TRMT61B / Fold change vs veh, TRMT61B / RFU, FUBP3 / Fold change vs veh, FUBP3 / RFU, TP53 / Fold change vs veh, TP53 / RFU, TNKS2 / Fold change vs veh, TNKS2 / RFU, ZFP14 / Fold change vs veh, ZFP14 / RFU, ACTR2 / Fold change vs veh, ACTR2 / RFU, PPP3R1 / Fold change vs veh, PPP3R1 / RFU, PIK3R1 / Fold change vs veh, PIK3R1 / RFU, HNRNPA1 / Fold change vs veh, HNRNPA1 / RFU, RNF170 / Fold change vs veh, RNF170 / RFU, ZNF28 / Fold change vs veh, ZNF28 / RFU, RNGTT / Fold change vs veh, RNGTT / RFU, OGT / Fold change vs veh, OGT / RFU, BRD1 / Fold change vs veh, BRD1 / RFU, MARS / Fold change vs veh, MARS / RFU, ZNF655 / Fold change vs veh, ZNF655 / RFU, FAHD1 / Fold change vs veh, FAHD1 / RFU, BDP1 / Fold change vs veh, BDP1 / RFU, LRRCC1 / Fold change vs veh, LRRCC1 / RFU, ARID1A / Fold change vs veh, ARID1A / RFU, ZNF146 / Fold change vs veh, ZNF146 / RFU, ZNF330 / Fold change vs veh, ZNF330 / RFU, GPN3 / Fold change vs veh, GPN3 / RFU, C9orf123 / Fold change vs veh, C9orf123 / RFU, N4BP2L2 / Fold change vs veh, N4BP2L2 / RFU, ARFIP1 / Fold change vs veh, ARFIP1 / RFU, FAM179B / Fold change vs veh, FAM179B / RFU, BCL10 / Fold change vs veh, BCL10 / RFU, UHRF1BP1L / Fold change vs veh, UHRF1BP1L / RFU, BET1 / Fold change vs veh, BET1 / RFU, CNOT2 / Fold change vs veh, CNOT2 / RFU, ZNF268 / Fold change vs veh, ZNF268 / Fold change vs veh, ZNF507 / RFU, DGCR2 / Fold change vs veh, DGCR2 / RFU, WDSUB1 / Fold change vs veh, WDSUB1 / Fold change vs veh, HSP90B1 /// MIR3652 / RFU, ADSS / Fold change vs veh, ADSS / RFU, GK / Fold change vs veh, GK / RFU, ZNF148 / Fold change vs veh, ZNF148 / RFU, TAF9 / Fold change vs veh, TAF9 / RFU, SLC1A5 / Fold change vs veh, SLC1A5 / RFU, SLMO2 / Fold change vs veh, SLMO2 / RFU, ABCC4 / Fold change vs veh, ABCC4 / RFU, LOC101060439 /// RAP1B / Fold change vs veh, LOC101060439 /// RAP1B / RFU, RFX7 / Fold change vs veh, RFX7 / RFU, GTPBP10 / Fold change vs veh, GTPBP10 / RFU, CNEP1R1 / Fold change vs veh, CNEP1R1 / RFU, BIVM-ERCC5 /// ERCC5 / Fold change vs veh, BIVM-ERCC5 /// ERCC5 / RFU, ILF3 / Fold change vs veh, ILF3 / RFU 11762660_at / Fold change /veh 11762660_at / RFU VCAN (11757783_s_at) / Fold change /veh VCAN (11757783_s_at) / RFU DDX43 (11728927_at) / Fold change /veh DDX43 (11728927_at) / RFU KRT8 (11758188_x_at) / Fold change /veh KRT8 (11758188_x_at) / RFU NKD1 (11759106_at) / Fold change /veh NKD1 (11759106_at) / RFU SRD5A1 (11742802_a_at) / Fold change /veh SRD5A1 (11742802_a_at) / RFU TPSAB1 /// TPSB2 (11721975_s_at) / Fold change /veh TPSAB1 /// TPSB2 (11721975_s_at) / RFU GSTM3 (11746129_a_at) / Fold change /veh GSTM3 (11746129_a_at) / RFU IL23R (11737362_x_at) / Fold change /veh IL23R (11737362_x_at) / RFU TMEM51 (11727254_a_at) / Fold change /veh TMEM51 (11727254_a_at) / RFU PIWIL2 (11732686_x_at) / Fold change /veh PIWIL2 (11732686_x_at) / RFU ORM1 (11744905_x_at) / Fold change /veh ORM1 (11744905_x_at) / RFU CCDC152 (11743942_at) / Fold change /veh CCDC152 (11743942_at) / RFU ECM1 (11717891_a_at) / Fold change /veh ECM1 (11717891_a_at) / RFU IL23R (11748794_a_at) / Fold change /veh IL23R (11748794_a_at) / RFU TNFAIP8L3 (11732012_x_at) / Fold change /veh TNFAIP8L3 (11732012_x_at) / RFU MBOAT4 (11741988_at) / Fold change /veh MBOAT4 (11741988_at) / RFU 11764193_at / Fold change /veh 11764193_at / RFU TMEM53 (11763286_at) / Fold change /veh TMEM53 (11763286_at) / RFU MAGEB2 (11727129_at) / Fold change /veh MAGEB2 (11727129_at) / RFU TMEM200A (11744735_a_at) / Fold change /veh TMEM200A (11744735_a_at) / RFU CCDC152 (11751479_a_at) / Fold change /veh CCDC152 (11751479_a_at) / RFU FAM211A (11726209_a_at) / Fold change /veh FAM211A (11726209_a_at) / RFU RGS16 (11746705_a_at) / Fold change /veh RGS16 (11746705_a_at) / RFU VCAN (11755009_s_at) / Fold change /veh VCAN (11755009_s_at) / RFU RHOB (11743442_s_at) / Fold change /veh RHOB (11743442_s_at) / RFU RGS16 (11720943_a_at) / Fold change /veh RGS16 (11720943_a_at) / RFU RGS16 (11720944_at) / Fold change /veh RGS16 (11720944_at) / RFU, VPS4B / Fold change vs veh, VPS4B / RFU, CREB1 / Fold change vs veh, CREB1 / RFU, DNAJC13 / Fold change vs veh, DNAJC13 / RFU, GNAQ / Fold change vs veh, GNAQ / RFU, CDK5R1 / Fold change vs veh, CDK5R1 / RFU, ZRANB3 / Fold change vs veh, ZRANB3 / RFU, CUL4A / Fold change vs veh, CUL4A / RFU, CCNY / Fold change vs veh, CCNY / RFU, UFL1 / Fold change vs veh, UFL1 / RFU, COG3 / Fold change vs veh, COG3 / RFU, DIAPH2 / Fold change vs veh, DIAPH2 / RFU, SKA2 / Fold change vs veh, SKA2 / RFU, AFF3 / Fold change vs veh, AFF3 / RFU, LMF1 / Fold change vs veh, LMF1 / RFU, IPO11 / Fold change vs veh, IPO11 / RFU, DFFB / Fold change vs veh, DFFB / RFU, FOXP1 / Fold change vs veh, FOXP1 / RFU, CARD8 / Fold change vs veh, CARD8 / RFU, STRN3 / Fold change vs veh, STRN3 / RFU, ADK / Fold change vs veh, ADK / RFU, RASSF2 / Fold change vs veh, RASSF2 / RFU, WIPF1 / Fold change vs veh, WIPF1 / RFU, LARP1B / Fold change vs veh, LARP1B / RFU, RASA1 / Fold change vs veh, RASA1 / RFU, RB1 / Fold change vs veh, RB1 / RFU, PPFIA1 / Fold change vs veh, PPFIA1 / RFU, MAT2A / Fold change vs veh, MAT2A / RFU, CCT5 / Fold change vs veh, CCT5 / RFU, WDR92 / Fold change vs veh, WDR92 / RFU, CUX1 / Fold change vs veh, CUX1 / RFU, TTC7A / Fold change vs veh, TTC7A / RFU, TMEM135 / Fold change vs veh, TMEM135 / RFU, DEPTOR / Fold change vs veh, DEPTOR / RFU, CPM / Fold change vs veh, CPM / RFU, DNAJB6 / Fold change vs veh, DNAJB6 / RFU, CACNA2D3 / Fold change vs veh, CACNA2D3 / RFU, DTX4 / Fold change vs veh, DTX4 / RFU, TFCP2 / Fold change vs veh, TFCP2 / RFU, GMCL1 /// GMCL1P1 / Fold change vs veh, GMCL1 /// GMCL1P1 / RFU, AEBP2 / Fold change vs veh, AEBP2 / RFU, SNHG1 /// SNORD22 /// SNORD25 /// SNORD26 /// SNORD27 /// SNORD28 /// SNORD29 /// SNORD31 / Fold change vs veh, SNHG1 /// SNORD22 /// SNORD25 /// SNORD26 /// SNORD27 /// SNORD28 /// SNORD29 /// SNORD31 / Fold change (Aza/veh), C12orf56 (ProbeSet 11735607_a_at) / Fold change (ACY-1035/veh), C12orf56 (ProbeSet 11735607_a_at) / Fold change (Aza/veh), FGFR1OP (ProbeSet 11751329_s_at) / Fold change (ACY-1035/veh), FGFR1OP (ProbeSet 11751329_s_at) / Fold change (Aza/veh), VPS36 (ProbeSet 11739960_a_at) / Fold change (ACY-1035/veh), VPS36 (ProbeSet 11739960_a_at) / RFU SYPL1 (11715823_x_at) / Fold change /veh SYPL1 (11715823_x_at) / RFU IGFBP7 (11715501_s_at) / Fold change /veh IGFBP7 (11715501_s_at) / RFU REEP3 (11722064_at) / Fold change /veh REEP3 (11722064_at) / RFU IGLL1 (11728026_x_at) / Fold change /veh IGLL1 (11728026_x_at): dose or concentration left out as unconfirmed
Conditions: ProbeSet 11716844_s_at; LIST D

Nc1ncn([C@@H]2O[C@H](CO)[C@@H](O)[C@H]2O)c(=O)n1 [azacitidine]
Fold change vs veh, DNAJC13: 0.78
